Assay results as given in patent publication US8008260B2, “Methods of protecting against apoptosis using lipopeptides” (Cleveland Clinic Foundation, priority 2005, dated 2011).
Peptide text beside a SMILES is read from it. * marks the point of attachment. Propyl(2R-PamO,3-PamO) = CCCCCCCCCCCCCCCC(=O)OC[C@H](C*)OC(=O)CCCCCCCCCCCCCCC

Legend:
mice = experiment: Mitigation of radiation injury, injection 1 hr after TBI; type: in vivo
Description: The ability of CBLB612 to serve as a mitigator of lower dose radiation injury was also examined. For this, 50 μg of CBLB612/mouse was injected intramuscularly 1 hr after exposure to 8.5, 9, or 10 Gy of TBI.

ICR mice = experiment: Radioprotection against total body gamma irradiation (TBI), 30-day survival; type: in vivo; details: for toxicity in combination with radiation: i.m. 24 hours before 10 Gy TBI; for rank of radioprotective potency: i.m. 24 hrs before 10 Gy TBI
Text: CBLB601, a R-Pam2-lipopeptide with the peptide moiety consisting of C-SKKKK (SEQ ID NO: 8), was selected for more detailed characterization as a radioprotector based upon its ability to activate NF-κB and preliminary in vivo data on radioprotection in NIH-SWISS mice (see Example 2). The objectives of this study were to determine the optimal dose, route of administration, and time of administration of CBLB601 to serve as a protector. ICR female mice of 10-15 weeks of age were used, with 10-15 animals per group or condition.
The optimal intraperitoneal administration schedule of CBLB601 was determined by injecting the compound at different times prior to irradiation. […] Therefore, all of the optimization experiments were performed with 10 Gy of total body irradiation (TBI). A dose of 3 μg of BCLB601/mouse (1/10 NOAEL) was chosen as the starting dose. Thus, 3 μg of CBLB601 was injected i.p. into ICR mice at 0.5 h, 1 h, 6 h, and 24 h or 1 h, 24 h, 48 h, 72 h, 96 h prior to 10 Gy of TBI (as described in Example 1). […] Injection of CBLB601 24 hrs before irradiation clearly yielded the best radioprotection (90-100% 30-day survival). When the compound was administered 48 hrs before irradiation, the radioprotection was ˜30%. Administration of CBLB601 at 1 hr prior to irradiation produced inconsistent results ranging from 80% protection in one experiment (FIG. 5B) to almost no protection (20%) in another experiment (FIG. 5A).
To determine the optimal radioprotective dose of CBLB601, the timing of injection and level of irradiation were kept constant, while the dose of CBLB601 was varied. ICR mice were injected i.p. with 1, 3, 10, 20, or 30 μg of CBLB601/mouse or 0.1, 0.3, 1, 3, 10, or […] 24 hrs prior to irradiation (10 Gy of TBI), and their survival was monitored for 30 days. The best protective dose was 3 μg/mouse, which supported a survival of 100% (FIGS. 6 A and B). […] Thus, the optimal protective dose of CBLB601 was determined to be 3 μg/mouse.
To determine the level of radiation that was protected by CBLB601, radioprotectant-treated and control mice were exposed to increasing levels of TBI. Groups of ICR mice were injected i.p. with either 3 μg CBLB601/mouse or PBS, and then 24 h later they received 10, 11, 12, 13, 14, and 15 Gy doses of TBI. Survival was recorded over 30 days. […] All of the mice irradiated with 10-11 Gy of TBI died between days 12-14 post irradiation, which was typical for death due to hematopoietic failure. All of the mice that received 14-15 Gy of TBI died between days 7-9 post irradiation, which was typical for mortality due to radiation-induced intestinal damage. Mice that were irradiated with 12-13 Gy of TBI died at intermediate times, which was typical for a mixed etiology of radiation-induced mortality. […] To reach a statistically significant 10% difference between control and CBLB601-treated mice, experimental groups of at least 50 mice must be used. Although CBLB601 rescued 100% of mice from 10 Gy of TBI, its protection at 11 Gy of TBI was only 20%. […] This may be indicative of a combined toxicity of the drug and the irradiation.
CBLB601 was administered intramuscularly to determine the optimal route of administration of this compound (especially since this would be the preferred route of administration for humans). […] In another experiment, increasing doses of CBLB601 administered i.m. were tested against 10, 11, and 12 Gy doses of […] (FIG. 9). […] A summary of the dose-dependency of the radioprotection of […] administered i.p. or i.m. 24 h prior to 10 Gy of TBI is shown in FIG. 10.
The optimal schedule of intramuscular administration of CBLB601 was determined by varying the time between drug delivery and irradiation. ICR mice were injected i.m. with 3 μg of CBLB601/mouse 24 h, 6 h, 3 h, and 1 h prior to TBI and +1 h, +3 h after TBI (FIG. 12A), as well as 48 h, 36 h, 24 h, 12 h, and 6 h prior to TBI (FIG. 12B). […]

[1] = Solubility of the lipopeptides
TLR2/TLR6 heterodimer = target: T1, TLR2/TLR6 heterodimer (Homo sapiens, UniProt O60603+Q9Y2C9); experiment: NF-κB-dependent reporter activity in 293 cells expressing the TLR2/TLR6 heterodimer; type: cell-based; design: NF-κB activation: scale not given here; details: for activation of the NF-κB reporter (in words, compared with CBLB601): 293 cells expressing TLR2/TLR6, various doses; for NF-κB activation: in vitro activity, 293 cells expressing TLR2/TLR6
T1 construct: expressed in transfected cells; host or cells: 293 cells
T1 sequence (O60603 21-784): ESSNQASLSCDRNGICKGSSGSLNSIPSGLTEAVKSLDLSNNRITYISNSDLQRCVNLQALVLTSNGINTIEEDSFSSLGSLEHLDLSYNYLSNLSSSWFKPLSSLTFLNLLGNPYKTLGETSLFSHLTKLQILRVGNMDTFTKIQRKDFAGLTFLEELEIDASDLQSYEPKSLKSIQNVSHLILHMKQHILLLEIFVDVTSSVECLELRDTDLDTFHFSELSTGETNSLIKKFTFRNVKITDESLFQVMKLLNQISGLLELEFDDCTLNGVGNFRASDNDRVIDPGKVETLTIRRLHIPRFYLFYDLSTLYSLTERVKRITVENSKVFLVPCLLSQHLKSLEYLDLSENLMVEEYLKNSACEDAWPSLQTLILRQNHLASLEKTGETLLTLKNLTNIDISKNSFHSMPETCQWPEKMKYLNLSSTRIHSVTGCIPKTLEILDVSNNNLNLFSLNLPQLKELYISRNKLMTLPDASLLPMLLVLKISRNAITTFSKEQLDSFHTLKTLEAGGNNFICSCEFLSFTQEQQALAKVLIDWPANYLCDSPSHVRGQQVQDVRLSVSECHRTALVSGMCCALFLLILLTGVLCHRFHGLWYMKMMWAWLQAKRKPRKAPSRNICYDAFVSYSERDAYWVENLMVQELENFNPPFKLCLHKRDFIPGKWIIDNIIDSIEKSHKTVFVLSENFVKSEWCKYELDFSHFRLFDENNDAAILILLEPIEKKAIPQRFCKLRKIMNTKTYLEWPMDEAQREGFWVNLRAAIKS
T1 sequence (Q9Y2C9 32-796): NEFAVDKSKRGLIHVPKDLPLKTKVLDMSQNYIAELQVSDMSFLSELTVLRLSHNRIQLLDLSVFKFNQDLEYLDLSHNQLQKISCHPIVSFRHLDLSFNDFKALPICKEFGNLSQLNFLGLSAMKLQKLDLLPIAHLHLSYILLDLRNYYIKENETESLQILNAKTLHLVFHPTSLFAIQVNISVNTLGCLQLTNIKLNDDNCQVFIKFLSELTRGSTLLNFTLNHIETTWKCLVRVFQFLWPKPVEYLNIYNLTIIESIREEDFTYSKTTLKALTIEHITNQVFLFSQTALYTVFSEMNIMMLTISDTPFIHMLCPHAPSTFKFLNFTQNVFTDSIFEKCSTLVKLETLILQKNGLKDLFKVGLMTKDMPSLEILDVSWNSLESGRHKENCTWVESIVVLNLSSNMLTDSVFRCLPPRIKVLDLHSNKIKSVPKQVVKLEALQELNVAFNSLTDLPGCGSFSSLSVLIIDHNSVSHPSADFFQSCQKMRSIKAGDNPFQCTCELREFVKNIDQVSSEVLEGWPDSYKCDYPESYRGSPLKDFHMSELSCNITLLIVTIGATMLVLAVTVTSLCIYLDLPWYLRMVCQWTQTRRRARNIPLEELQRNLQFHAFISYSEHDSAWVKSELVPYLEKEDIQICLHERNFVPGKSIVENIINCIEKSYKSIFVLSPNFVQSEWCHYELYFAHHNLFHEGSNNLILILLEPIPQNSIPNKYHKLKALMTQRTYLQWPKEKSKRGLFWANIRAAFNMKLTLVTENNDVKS
Description: NF-κB-dependent reporter activity was measured in 293 cells that expressed the TLR2/YLR6 heterodimer. […] None of the non-palmitoylated corresponding peptides activated the NF-κB reporter (FIG. 18B). The peptide component of CBLB617 has a (−4) charge, which should prevent it from interacting with negatively charged cell surface markers. […] Table 5 summarizes the in vitro activity and solubility of all the compounds.

C57B1/6J mice = experiment: Survival after gamma irradiation with p53 inhibitor pretreatment; type: in vivo; details: 10 mg/kg i.p.
Description: To examine the role of p53 in radiation-induced death, mice were treated with the small molecule inhibitor of p53, pifithrin-alpha (PFTα) (Komarov et al., Science 285:1733-7, 1999) immediately prior to gamma irradiation. C57B1/6J mice (6-8 weeks old males were used here and below, if not indicated otherwise) were injected intraperitoneally with 10 mg/kg of PFTα and then irradiated using a Shepherd 4000 Ci ^137Cesium source at a dose rate of 4 Gy per minute.

Structure (SMILES)	survival rate versus PBS (mice; 50 μg/mouse i.m. 1 hr after 8.5, 9 or 10 Gy TBI)	mice surviving to 27 days (mice; 50 μg/mouse i.m. 1 hr after 8.5 Gy TBI)	mice surviving to 27 days (mice; 50 μg/mouse i.m. 1 hr after 9 Gy TBI)	toxicity in combination with radiation (ICR mice)	rank of radioprotective potency (ICR mice)	radioprotector quality compared with CBLB601 (ICR mice; mouse, in vivo)	therapeutic index (ICR mice; summary of Example 5)	Solubility [1]	activation of the NF-κB reporter (in words, compared with CBLB601) (TLR2/TLR6 heterodimer)	NF-κB activation (TLR2/TLR6 heterodimer)	survival of irradiated mice (C57B1/6J mice; fractioned cumulative 12.5 Gy (5×2.5 Gy))	survival of irradiated mice (C57B1/6J mice; single 9 Gy dose)	survival of irradiated mice (C57B1/6J mice; single 12.5 Gy)	survival of irradiated mice (C57B1/6J mice; single 25 Gy)
CCCCCCCCCCCCCCCC(=O)OC[C@H](CSC[C@H](N)C(=O)N[C@H](C(=O)N[C@@H](CCC(N)=O)C(=O)NCC(=O)N[C@@H](CCC(=O)O)C(=O)N[C@@H](CCC(=O)O)C(=O)N[C@@H](CO)C(=O)N[C@@H](CC(N)=O)C(=O)N[C@@H](CC(=O)O)C(=O)N[C@@H](CCCCN)C(=O)O)C(C)C)OC(=O)CCCCCCCCCCCCCCC [CBLB612] (H-C(Propyl(2R-PamO,3-PamO))VQGEESNDK-OH)	increased the survival rate at every dose of radiation	90%	70%	no toxicity in combination with radiation	CBLB612>CBLB614>CBLB615	significantly better radioprotectors than CBLB601	~20	Excellent	better activators than CBLB601	200	–	–	–	–
Cc1ccc(C(=O)Cn2c3c(sc2=N)CCCC3)cc1 [PFTα, pifithrin-alpha]	–	–	–	–	–	–	–	–	–	–	protected mice	protected mice	no effect on the survival	no effect on the survival
CCCCCCCCCCCCCCCC(=O)OC[C@H](CSC[C@H](N)C(=O)N[C@@H](CCC(N)=O)C(=O)NCC(=O)N[C@@H](CCC(=O)O)C(=O)N[C@@H](CCC(=O)O)C(=O)N[C@@H](CO)C(=O)N[C@@H](CC(N)=O)C(=O)N[C@@H](CC(=O)O)C(=O)N[C@@H](CCCCN)C(=O)O)OC(=O)CCCCCCCCCCCCCCC [CBLB614] (H-C(Propyl(2R-PamO,3-PamO))QGEESNDK-OH)	–	–	–	no toxicity in combination with radiation	CBLB612>CBLB614>CBLB615	–	–	Soluble	better activators than CBLB601	200	–	–	–	–
